Insulinase inhibitory activity data for two substances are collected here from US5070074A, “Hypoglycemic and growth-promoting polypeptides isolated from bacitracin” (Protor Co., priority 1990, dated 1991).

For the assay, the system named is insulinase. The assay can be described thus: insulinase inhibitory activity (method of Duckworth et al.). The assay is classed as biochemical. The conditions noted are these: peaks from CM-Sepharose fractionation of commercial bacitracin. Here is the method:
The desired fraction is believed to have a molecular weight of about 1400, approximately the same as bacitracin A or F. Their anti-insulinase and antibacterial activities can be assayed in conventional manner. For example, the insulinase inhibitory activity was measured according to the method of Duckworth, et al., Proc. Nat. Acad. Sci., 69, 3698-3702 (1972) and the anti-bacterial activity by the method of Patrick, et al., Antibiotics and Chemotherapy, 1, 133-137 (1951).
A 350 ml bed volume of CM-Sepharose in a packed column (2.8×56 cm) was equilibrated with 0.05M ammonium acetate, pH 4.5 One gram of commercial bacitracin dissolved in 50 ml of buffer was applied to the packed column. The material was eluted with […] of equilibrating buffer followed by 350 ml of 1M ammonium acetate pH 4.5 buffer. Five ml fractions were collected and absorbance measurements at 252, 280 and 290 nm were made. In addition, insulinase inhibitory activity measurements were made on each peak. […] The peaks were collected, lyophilized, weighed and dissolved in water at 5 mg/ml concentration for specific activity measurements. The material collected with the second buffer contained 5-10 % of the total weight of the applied material and 90 % of the total insulinase inhibitory capacity. The specific activity of this material was 10-12 times that of the starting commercial material.

As to bacitracin A, the insulinase inhibitory activity result was “negligible”. Further, for the setting “listed as bacitracin A”, the insulinase inhibitory activity result was “substantially no”.
Consider bacitracin F, for which the insulinase inhibitory activity entry is reported as “negligible”. Where the note is “listed as bacitracin F”, the insulinase inhibitory activity entry is recorded as “substantially no”.
